Assay results from patent US20190248768A1, “METHOD FOR PURIFYING BENZOPYRAN DERIVATIVE, CRYSTAL FORM THEREOF, AND METHOD FOR PREPARING CRYSTAL FORM” (priority 2015, published 2019).

How the values were obtained:
Type in all cases: physicochemical
[1] = Stability test on humidity
Protocol: (§1) In the following examples and experimental examples, the high performance liquid chromatography (HPLC) analyses were carried out under the following conditions: • Analytical column: C18, 4.6×250 mm, 5 μm • Mobile phase: buffer solution/acetonitrile=40/60 (v/v) • Buffer solution: ammonium formate (0.657 g) was taken and then added to a 1 L volumetric flask. Water was added thereto to the mark so as to dissolve ammonium formate and then the pH of the resulting solution was adjusted to pH 5.5±0.2 with a diluted formic acid. • Wavelength: 254 nm • Column temperature: 30° C. • Flow rate: 1.0 mL/min. • Injection volume: 10 μL
(§2) The X-ray powder diffraction (XRPD) analyses were carried out with the PANalytical's X-pert Pro X-ray powder diffractometer. The measurements at the angles ranging from 3 to 80°2θ values were performed at a scanning rate of 3° per second, using CuKα1 radiation (λα1=1.54060 Å) produced at the conditions of 40 mA and 40 kV.
The crystalline form A of the compound of Formula 1 obtained in Example 1 and the amorphous form of the compound of Formula 1 obtained in Preparation Example were stored at the humid condition (25° C., 98% RH) for 2 weeks, so as to evaluate the stabilities thereof.

[2] = Thermal stability test; conditions: 100° C.
Protocol: as §1, §2
The crystalline form A of the compound of Formula 1 obtained in Example 1 and the amorphous form of the compound of Formula 1 obtained in Preparation Example were stored at the heat-condition (100° C.) for 2 weeks, so as to evaluate the stabilities thereof.

[3] = Accelerated stability test
Protocol: as §1, §2
The crystalline form A of the compound of Formula 1 obtained in Example 1 and the amorphous form of the compound of Formula 1 obtained in Preparation Example were stored at the accelerated condition (40° C., 75% RH) for 2 weeks, so as to evaluate the stabilities thereof.

Row | Structure (SMILES) | Water contents ([1]; 25° C., 98% RH, 1 week) [%] | Purity (as an anhydrous form) ([1]; 25° C., 98% RH, 2 weeks) [%] | Water contents ([1]; 25° C., 98% RH, 2 weeks) [%] | Water contents ([1]; 25° C., 98% RH, 1 day) [%] | Water contents ([1]; 25° C., 98% RH, 2 days) [%] | Purity (as an anhydrous form) ([1]; 25° C., 98% RH, Initial) [%] | Water contents ([1]; 25° C., 98% RH, Initial) [%] | enantiomer during the test period ([1]; 25° C., 98% RH, during 2 weeks) | Purity (as an anhydrous form) ([2]; 2 weeks) [%] | Water contents ([2]; 2 weeks) [%] | Purity (as an anhydrous form) ([2]; Initial) [%] | Water contents ([2]; Initial) [%] | change in the appearance ([2]; during 2 weeks) | enantiomer during the test period ([2]; during 2 weeks) | Water contents ([3]; 40° C., 75% RH, 1 week) [%] | Purity (as an anhydrous form) ([3]; 40° C., 75% RH, 2 weeks) [%] | Water contents ([3]; 40° C., 75% RH, 2 weeks) [%] | Water contents ([3]; 40° C., 75% RH, 1 day) [%] | Water contents ([3]; 40° C., 75% RH, 2 days) [%] | Purity (as an anhydrous form) ([3]; 40° C., 75% RH, Initial) [%] | other results
1 | COC(OC)[C@]1(C)Oc2ccc(N)cc2[C@H](N(Cc2ncc[nH]2)c2ccc(Cl)cc2)[C@H]1O [amorphous form of the compound of Formula 1] [(2R,3R,4S)-6-amino-4-[N-(4-chlorophenyl)-N-(1H-imidazol-2-ylmethyl)amino]-3-hydroxy-2-methyl-2-dimethoxymethyl-3,4-dihydro-2H-1-benzopyran] | 3.90 | 96.55 | 3.58 | 3.20 | 3.60 | 96.96 | 1.05 | no enantiomer was detected | 92.34 | 0.34 | 96.96 | 1.05 | changed to brown color from the first day | no enantiomer was detected | 2.52 | 96.72 | 2.60 | 2.30 | 2.64 | 96.96 | water contents over the storing time ([1]; 25° C., 98% RH, during 2 weeks): up to 3.90%; hygroscopicity ([1]; humid condition (25° C., 98% RH)): very high hygroscopicity; Water contents ([3]; 40° C., 75% RH, Initial): 1.05%; water contents over the storing time ([3]; 40° C., 75% RH, during 2 weeks): up to 2.64%; hygroscopicity ([3]; accelerated condition (40° C., 75% RH)): very high hygroscopicity; Water contents ([3]; accelerated condition, in 1 day): 2.30 wt/wt %
2 | COC(OC)[C@]1(C)Oc2ccc(N)cc2[C@H](N(Cc2ncc[nH]2)c2ccc(Cl)cc2)[C@H]1O [crystalline form A of the compound of Formula 1] [(2R,3R,4S)-6-amino-4-[N-(4-chlorophenyl)-N-(1H-imidazol-2-ylmethyl)amino]-3-hydroxy-2-methyl-2-dimethoxymethyl-3,4-dihydro-2H-1-benzopyran] | 0.29 | 99.32 | 0.27 | 0.21 | 0.24 | 99.43 | 0.16 | no enantiomer was detected | 99.25 | 0.11 | 99.43 | 0.16 | changed to pale yellow color from the first week | no enantiomer was detected | 0.17 | 99.34 | 0.18 | 0.18 | 0.18 | 99.43 | XRPD analyses, crystalline form maintained ([1]; 25° C., 98% RH, during 2 weeks): the same crystalline form A was maintained; change in the appearance ([1]; 25° C., 98% RH, during 2 weeks): without any change in the appearance; XRPD analyses, crystalline form maintained ([2]; during 2 weeks): the same crystalline form A was maintained; Water contents ([3]; 40° C., 75% RH, Initial): 0.16%; XRPD analyses, crystalline form maintained ([3]; 40° C., 75% RH, during 2 weeks): the same crystalline form A was maintained; change in the appearance ([3]; 40° C., 75% RH, during 2 weeks): without any change in the appearance; enantiomer during the test period ([3]; 40° C., 75% RH, during 2 weeks): no enantiomer was detected
